The values below come from patent publication US6914051B1, “Penetrating antibiotic gel for soft tissue diseases” (priority 2000, dated 2005).

One assay deals with Chlamydia Pneumoniae. The conditions noted are these: reported; cited from earlier work.
Assay [1] relates to cervical/lumbosacral disc disease. Description: Clinical injection/arthroscopic application of azithromycin with liposome in disc disease. Type of assay: in vivo, human. The settings on record: two occasions, applied with a liposome and another anti-inflammatory at surgical arthroscopy of the intervertebral disc. The text has this:
The therapy of the present invention was also observed to be effective in clinical treatment of cervical/lumbosacral disc disease.

The subject of assay [2] is severe acute lower back pain. The conditions noted are these: short-term oral treatment; effect not seen three or so days after onset; cited from earlier work.
The test system of another assay is phospholipase A2. The conditions noted are these: VanBebeke et al, 1994; cited from earlier work.

Molecules are shown by their SMILES.

Take `Cc1c(F)c(N2CCNC(C)C2)cc2c1c(=O)c(C(=O)O)cn2C1CC1` (centres unmarked) [Grepafloxacin]: the “potency against Chlamydia Pneumoniae” value in the assay on Chlamydia Pneumoniae was “good potency”.
As for `CC[C@H]1OC(=O)[C@H](C)[C@@H](O[C@H]2C[C@@](C)(OC)[C@@H](O)[C@H](C)O2)[C@H](C)[C@@H](O[C@@H]2O[C@H](C)C[C@H](N(C)C)[C@H]2O)[C@](C)(O)C[C@@H](C)CN(C)[C@H](C)[C@@H](O)[C@]1(C)O` [azithromycin, azithromycin dihydrate], in assay [1], the “relief of the patients' severe pain” value was “good and immediate relief”. In assay [2], the “response of severe acute lower back pain” value is “respond dramatically”. In the assay with phospholipase A2, the “effect on neurotoxic phospholipase A2” value is given as “direct effect in mitigating the effects”.
As for `CO[C@H]1/C=C/O[C@@]2(C)Oc3c(C)c(O)c4c(O)c(c(/C=N/N5CCN(C)CC5)c(O)c4c3C2=O)NC(=O)/C(C)=C\C=C\[C@H](C)[C@H](O)[C@@H](C)[C@@H](O)[C@@H](C)[C@H](OC(C)=O)[C@@H]1C` [rifanpin], the “potency against Chlamydia Pneumoniae” value in the assay on Chlamydia Pneumoniae is given as “good potency”.
